Source: ChEMBL document CHEMBL1201862, “PubChem BioAssay data set” (2004)
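Cultured in 96-well plates, cells were exposed to test compound for 48 hours across five concentrations. At the GI50, growth is halved.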 The source made the active and inactive calls. Rule as the data show it: active = GI50 up to about 1.1 µM and inactive = higher.

How the values were obtained:
Assay in all cases: NCI-60 cell line screen, 48 h
COLO 205 = test system: COLO 205
HCT-15 = test system: HCT-15
HOP-62 = test system: HOP-62
IGROV-1 = test system: IGROV-1
LOX IMVI = test system: LOX IMVI
NCI-H23 = test system: NCI-H23
NCI-H460 = test system: NCI-H460
NCI-H522 = test system: NCI-H522
RPMI-8226 = test system: RPMI-8226
RXF 393 = test system: RXF 393
SN12C = test system: SN12C
SR = test system: SR
TK-10 = test system: TK-10
UO-31 = test system: UO-31
A498 = test system: A498
SK-OV-3 = test system: SK-OV-3
SNB-75 = test system: SNB-75

| SMILES | GI50 (COLO 205) | GI50 (HCT-15) [µM] | GI50 (HOP-62) | GI50 (IGROV-1) | GI50 (LOX IMVI) | GI50 (NCI-H23) | GI50 (NCI-H460) | GI50 (NCI-H522) | GI50 (RPMI-8226) | GI50 (RXF 393) | GI50 (SN12C) | GI50 (SR) | GI50 (TK-10) | GI50 (UO-31) | GI50 (A498) | GI50 (SK-OV-3) | GI50 (SNB-75) |
| --- | --- | --- | --- | --- | --- | --- | --- | --- | --- | --- | --- | --- | --- | --- | --- | --- | --- |
| CN(C)c1ccc(-c2cc(O)c3ccccc3n2)cc1 | > 100 µM (inactive) | > 100 | > 100 µM (inactive) | > 100 µM (inactive) | > 100 µM (inactive) | > 100 µM (inactive) | > 100 µM (inactive) | > 100 µM (inactive) | > 100 µM (inactive) | > 100 µM (inactive) | > 100 µM (inactive) | > 100 µM (inactive) | > 100 µM (inactive) | > 100 µM (inactive) | – | – | – |
| CN1CCc2c1nc(-c1cccnc1)c1c2N(C)CC1 | > 100 µM (inactive) | > 100 | > 100 µM (inactive) | > 100 µM (inactive) | > 100 µM (inactive) | > 100 µM (inactive) | > 100 µM (inactive) | – | > 100 µM (inactive) | > 100 µM (inactive) | > 100 µM (inactive) | – | > 100 µM (inactive) | 48.8 µM (inactive) | 52 µM (inactive) | > 100 µM (inactive) | > 100 µM (inactive) |
| Cc1ccccc1C1=C(C(=O)Nc2ccc(Cl)c(Cl)c2)NC(=S)NC1N (stereo unspecified) | > 100 µM (inactive) | > 100 | – | > 100 µM (inactive) | > 100 µM (inactive) | > 100 µM (inactive) | > 100 µM (inactive) | > 100 µM (inactive) | > 100 µM (inactive) | > 100 µM (inactive) | > 100 µM (inactive) | – | > 100 µM (inactive) | > 100 µM (inactive) | > 100 µM (inactive) | > 100 µM (inactive) | > 100 µM (inactive) |
| CC(=O)C(CN(CC(C)C)CC(C)C)C(c1ccccc1)c1c(O)c2ccccc2oc1=O (stereo unspecified) | > 100 µM (inactive) | > 100 | > 100 µM (inactive) | > 100 µM (inactive) | > 100 µM (inactive) | > 100 µM (inactive) | – | > 100 µM (inactive) | > 100 µM (inactive) | > 100 µM (inactive) | > 100 µM (inactive) | – | > 100 µM (inactive) | – | > 100 µM (inactive) | > 100 µM (inactive) | > 100 µM (inactive) |
| C/C=C1\CN2CCc3c([nH]c4ccccc34)C2CC1CCO (stereo unspecified) | > 100 µM (inactive) | > 100 | > 100 µM (inactive) | > 100 µM (inactive) | > 100 µM (inactive) | > 100 µM (inactive) | > 100 µM (inactive) | > 100 µM (inactive) | – | > 100 µM (inactive) | > 100 µM (inactive) | > 100 µM (inactive) | > 100 µM (inactive) | 74.8 µM (inactive) | > 100 µM (inactive) | > 100 µM (inactive) | 28.8 µM (inactive) |
| C=CCC1(CN(C)C)CC/C(=C\c2cc(OC)c(OC)c(OC)c2)C1=O (stereo unspecified) | 17 µM (inactive) | 20 | 77.8 µM (inactive) | 29.4 µM (inactive) | 23.2 µM (inactive) | 35 µM (inactive) | 18.8 µM (inactive) | 15.1 µM (inactive) | 24.5 µM (inactive) | 19.2 µM (inactive) | 22.3 µM (inactive) | 19.6 µM (inactive) | 18.8 µM (inactive) | 26.5 µM (inactive) | 29.4 µM (inactive) | – | 62.2 µM (inactive) |
| CC[P+]1(c2ccccc2)CCCCC1 | > 100 µM (inactive) | > 100 | > 100 µM (inactive) | > 100 µM (inactive) | > 100 µM (inactive) | > 100 µM (inactive) | > 100 µM (inactive) | – | > 100 µM (inactive) | > 100 µM (inactive) | > 100 µM (inactive) | > 100 µM (inactive) | > 100 µM (inactive) | > 100 µM (inactive) | – | > 100 µM (inactive) | > 100 µM (inactive) |
| COc1ccc(C2C3=C(COC3=O)Oc3cc4c(cc32)OCO4)cc1 (stereo unspecified) | 13 µM (inactive) | 6.27 | 8.39 µM (inactive) | 32.2 µM (inactive) | 27.4 µM (inactive) | 20.1 µM (inactive) | 10.8 µM (inactive) | – | 12.7 µM (inactive) | 19.1 µM (inactive) | 27.9 µM (inactive) | – | 29.3 µM (inactive) | 16.7 µM (inactive) | – | > 100 µM (inactive) | 8.3 µM (inactive) |
| Cc1oc2c(C)c(O)c3c(c2c1C1(C)OCCO1)C(=O)C=C(Cl)C3=O | > 100 µM (inactive) | > 100 | > 100 µM (inactive) | > 100 µM (inactive) | > 100 µM (inactive) | > 100 µM (inactive) | > 100 µM (inactive) | > 100 µM (inactive) | > 100 µM (inactive) | > 100 µM (inactive) | > 100 µM (inactive) | > 100 µM (inactive) | > 100 µM (inactive) | > 100 µM (inactive) | > 100 µM (inactive) | – | – |
| N#CC(C#N)=Cc1ccc(CP(=O)(O)O)cc1 | > 100 µM (inactive) | > 100 | > 100 µM (inactive) | > 100 µM (inactive) | > 100 µM (inactive) | > 100 µM (inactive) | > 100 µM (inactive) | 59.6 µM (inactive) | > 100 µM (inactive) | – | > 100 µM (inactive) | – | > 100 µM (inactive) | > 100 µM (inactive) | > 100 µM (inactive) | > 100 µM (inactive) | – |
| O=C(c1ccccc1)c1c(C(=O)c2ccccc2)c(-c2ccccc2)c2c(-c3ccccc3)sc(-c3ccccc3)c2c1-c1ccccc1 | > 100 µM (inactive) | > 100 | > 100 µM (inactive) | > 100 µM (inactive) | > 100 µM (inactive) | > 100 µM (inactive) | > 100 µM (inactive) | > 100 µM (inactive) | > 100 µM (inactive) | > 100 µM (inactive) | > 100 µM (inactive) | – | > 100 µM (inactive) | > 100 µM (inactive) | > 100 µM (inactive) | > 100 µM (inactive) | > 100 µM (inactive) |
| O=CN/C=C\c1cc(O)ccc1O | 14.2 µM (inactive) | 9.31 | 18.6 µM (inactive) | > 40.1 µM (inactive) | 7.23 µM (inactive) | 15.8 µM (inactive) | 10 µM (inactive) | 4.99 µM (inactive) | 13.6 µM (inactive) | – | 14 µM (inactive) | 3.91 µM (inactive) | > 46.2 µM (inactive) | 13.8 µM (inactive) | 74.8 µM (inactive) | > 100 µM (inactive) | > 100 µM (inactive) |
| N#CC12Cc3cc4c(cc3-c3cccc(c31)CCN2C(=O)c1ccccc1)OCO4 (stereo unspecified) | > 100 µM (inactive) | – | 53.8 µM (inactive) | > 100 µM (inactive) | > 100 µM (inactive) | > 100 µM (inactive) | – | > 10 µM (inactive) | > 100 µM (inactive) | 53.1 µM (inactive) | > 100 µM (inactive) | > 100 µM (inactive) | > 100 µM (inactive) | > 100 µM (inactive) | 53.3 µM (inactive) | > 100 µM (inactive) | 21.6 µM (inactive) |
| Cc1cccc(NC2=NC(=O)C(CC(=O)Nc3ccccc3Cl)S2)c1 (stereo unspecified) | – | > 100 | – | > 100 µM (inactive) | > 100 µM (inactive) | > 100 µM (inactive) | > 100 µM (inactive) | – | > 100 µM (inactive) | > 100 µM (inactive) | > 100 µM (inactive) | > 100 µM (inactive) | > 100 µM (inactive) | > 100 µM (inactive) | > 100 µM (inactive) | – | > 100 µM (inactive) |
| COc1ccc(N2C(=O)C3c4[nH]c5ccccc5c4C4CC(C)CC(C)C4C3C2=O)cc1 (stereo unspecified) | > 100 µM (inactive) | > 100 | > 100 µM (inactive) | > 100 µM (inactive) | – | > 100 µM (inactive) | – | > 100 µM (inactive) | > 100 µM (inactive) | > 100 µM (inactive) | > 100 µM (inactive) | > 100 µM (inactive) | – | > 100 µM (inactive) | > 100 µM (inactive) | > 100 µM (inactive) | > 100 µM (inactive) |
| Cc1ccccc1NC(=O)CC(=O)NNCC(=O)Nc1nnc(-c2ccccc2)s1 | > 100 µM (inactive) | 58.2 | 42.9 µM (inactive) | > 100 µM (inactive) | 51.3 µM (inactive) | > 100 µM (inactive) | 48.2 µM (inactive) | 65.2 µM (inactive) | 25 µM (inactive) | – | > 100 µM (inactive) | 32.1 µM (inactive) | 42.7 µM (inactive) | 45 µM (inactive) | 30.9 µM (inactive) | – | 24.7 µM (inactive) |
| O=C1CSC(C(/N=N/c2ccccc2)=C2Nc3ccccc3N2)=N1 | > 100 µM (inactive) | 54.6 | 23.7 µM (inactive) | > 100 µM (inactive) | 52.1 µM (inactive) | 74.5 µM (inactive) | 38.6 µM (inactive) | 56.4 µM (inactive) | – | – | 66.8 µM (inactive) | 12.5 µM (inactive) | > 100 µM (inactive) | 95.7 µM (inactive) | 30.7 µM (inactive) | 18.3 µM (inactive) | 34.4 µM (inactive) |
| COc1ccccc1/C=C\c1cc(OC)c(OC)c(OC)c1 | 4.46 µM (inactive) | 4.2 | 5.18 µM (inactive) | 6.41 µM (inactive) | 9.59 µM (inactive) | – | 6.85 µM (inactive) | 6.14 µM (inactive) | 5.01 µM (inactive) | 11 µM (inactive) | 29.3 µM (inactive) | – | 43.6 µM (inactive) | 16.1 µM (inactive) | 7.64 µM (inactive) | – | 10.7 µM (inactive) |
| Cn1cnc([N+](=O)[O-])c1Sc1ccccn1 | 76.4 µM (inactive) | – | > 100 µM (inactive) | > 100 µM (inactive) | > 100 µM (inactive) | > 100 µM (inactive) | > 100 µM (inactive) | 74.3 µM (inactive) | > 100 µM (inactive) | – | > 100 µM (inactive) | 50.6 µM (inactive) | > 100 µM (inactive) | 87.1 µM (inactive) | > 100 µM (inactive) | > 100 µM (inactive) | > 100 µM (inactive) |
